The numbers were not newly measured in patent US7776915B2, “Topical formulations and methods of use” (Tracie Martyn International, LLC, priority 2005, dated 2010), which cites them from elsewhere.

For data set [1], the target named is ACE (Homo sapiens, UniProt P12821). The conditions noted are these: read-out: ACE inhibitor IC50.
The conditions of data set [2]: dosages above 500 mg/kg body weight.
In data set [3] the test system is neurites in the brain. The conditions noted are these: similar to the stimulating effect of nerve growth factor.

pIC50: −log10 of the molar value.

ACE, sequence (P12821 30-1306, species assumed): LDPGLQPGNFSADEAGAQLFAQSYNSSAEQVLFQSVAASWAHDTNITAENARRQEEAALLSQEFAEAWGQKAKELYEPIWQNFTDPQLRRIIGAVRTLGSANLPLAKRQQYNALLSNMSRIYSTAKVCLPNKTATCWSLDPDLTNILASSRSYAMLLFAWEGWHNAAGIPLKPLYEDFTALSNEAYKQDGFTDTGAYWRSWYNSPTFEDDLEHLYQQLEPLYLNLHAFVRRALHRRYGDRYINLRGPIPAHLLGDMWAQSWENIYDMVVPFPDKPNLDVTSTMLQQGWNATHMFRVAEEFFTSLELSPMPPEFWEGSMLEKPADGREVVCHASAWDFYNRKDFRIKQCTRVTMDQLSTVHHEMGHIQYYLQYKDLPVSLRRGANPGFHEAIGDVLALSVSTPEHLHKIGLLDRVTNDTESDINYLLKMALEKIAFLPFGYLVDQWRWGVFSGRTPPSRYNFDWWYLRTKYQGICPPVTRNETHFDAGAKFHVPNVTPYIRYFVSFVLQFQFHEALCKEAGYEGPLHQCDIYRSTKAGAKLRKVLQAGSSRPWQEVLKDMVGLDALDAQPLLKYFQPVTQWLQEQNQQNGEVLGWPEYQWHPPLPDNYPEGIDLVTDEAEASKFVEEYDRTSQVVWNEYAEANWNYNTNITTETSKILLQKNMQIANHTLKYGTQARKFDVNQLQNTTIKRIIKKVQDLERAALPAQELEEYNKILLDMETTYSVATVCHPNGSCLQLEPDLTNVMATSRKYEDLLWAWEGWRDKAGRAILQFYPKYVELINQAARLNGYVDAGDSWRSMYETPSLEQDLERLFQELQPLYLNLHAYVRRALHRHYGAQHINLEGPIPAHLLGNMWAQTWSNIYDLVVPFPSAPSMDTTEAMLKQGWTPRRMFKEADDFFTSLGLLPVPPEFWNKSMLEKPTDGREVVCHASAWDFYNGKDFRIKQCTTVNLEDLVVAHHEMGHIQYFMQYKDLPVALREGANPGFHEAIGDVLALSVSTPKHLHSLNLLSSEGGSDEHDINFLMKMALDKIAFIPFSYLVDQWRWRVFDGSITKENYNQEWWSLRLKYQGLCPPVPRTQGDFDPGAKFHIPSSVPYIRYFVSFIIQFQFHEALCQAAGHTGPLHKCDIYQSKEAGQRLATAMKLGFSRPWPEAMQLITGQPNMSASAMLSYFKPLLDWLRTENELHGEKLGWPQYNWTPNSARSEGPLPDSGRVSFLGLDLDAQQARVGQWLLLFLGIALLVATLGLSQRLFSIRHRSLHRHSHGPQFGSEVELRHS

In the case of `N[C@@H](CCC(=O)N[C@@H](CS)C(=O)NCC(=O)O)C(=O)O` [Glutathione], the pIC50 in data set [1] was 4.98.

Consider `Cc1ncc(CO)c(CN)c1O` [Pyridoxamine, 4-aminomethyl-5-hydroxy-6-methyl-3-pyridinemethanol], for which the water solubility entry is “water-soluble”. `NCCC(=O)N[C@@H](Cc1cnc[nH]1)C(=O)O` [Carnosine, β-alanyl-L-histidine]: the “safety in animal studies” value in data set [2] is given as “safe”. `CC(=O)O[C@H](CC(=O)[O-])C[N+](C)(C)C.NC(N)=NCCC[C@H](N)C(=O)O` [Acetyl-1-carnitine-arginate]: the “stimulation of the growth of neurites” value in data set [3] is recorded as at most 19.5%.

Broadly, the pIC50 is the negative decadic logarithm of the IC50, by convention in mol/L.
